Measurements published in patent publication US4689345A, “Oxygenated alkyl substituted bicyclo alkanes” (CBD Corporation, priority 1986, dated 1987).
Entries after “also recorded” stand apart in the source; their conditions may differ.

Experiments:
androgen receptor site = biological target: T1, androgen receptor site (Homo sapiens, UniProt P10275); assay: % inhibition of labelled androgen (3H DHT) binding to caesarean section skin from hirsute patients
T1 construct: the test utilizing caesarean section skin from hirsute patients; from tissue; host or cells: caesarean section skin from hirsute patients
T1 sequence (P10275 1-920): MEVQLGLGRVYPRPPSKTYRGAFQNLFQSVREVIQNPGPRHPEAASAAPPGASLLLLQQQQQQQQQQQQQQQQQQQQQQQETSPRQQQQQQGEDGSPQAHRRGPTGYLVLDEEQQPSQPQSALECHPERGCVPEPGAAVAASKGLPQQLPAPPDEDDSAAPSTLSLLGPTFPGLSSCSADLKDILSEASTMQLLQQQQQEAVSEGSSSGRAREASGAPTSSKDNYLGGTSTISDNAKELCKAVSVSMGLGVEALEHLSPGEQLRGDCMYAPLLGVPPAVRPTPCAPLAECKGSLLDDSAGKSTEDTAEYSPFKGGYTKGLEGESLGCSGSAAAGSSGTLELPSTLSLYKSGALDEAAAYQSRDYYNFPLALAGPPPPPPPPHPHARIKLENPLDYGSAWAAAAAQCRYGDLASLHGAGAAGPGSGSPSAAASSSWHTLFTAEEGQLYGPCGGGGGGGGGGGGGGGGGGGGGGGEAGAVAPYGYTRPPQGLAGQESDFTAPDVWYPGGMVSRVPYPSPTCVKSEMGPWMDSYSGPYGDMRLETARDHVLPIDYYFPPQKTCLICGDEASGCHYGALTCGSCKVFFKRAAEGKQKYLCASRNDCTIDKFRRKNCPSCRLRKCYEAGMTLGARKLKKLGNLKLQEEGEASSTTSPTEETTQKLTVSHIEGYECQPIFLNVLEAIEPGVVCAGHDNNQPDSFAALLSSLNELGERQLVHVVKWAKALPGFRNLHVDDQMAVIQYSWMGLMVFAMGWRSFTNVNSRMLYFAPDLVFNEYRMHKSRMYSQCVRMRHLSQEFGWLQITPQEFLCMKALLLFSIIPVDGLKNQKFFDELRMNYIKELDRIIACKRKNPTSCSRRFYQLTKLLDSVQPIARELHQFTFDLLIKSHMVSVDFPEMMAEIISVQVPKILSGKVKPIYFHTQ

human fibroblast cells [1] = assay: Elastin production by fibroblast cells; format: cell-based; details: for formation of elastin: Example 45; for increase in elastin production over control cells: treated vs control (non-treated) fibroblast cells
From the text: (§1) Experiments generally following the methodology of Boote et al., Biochimica et Biophysica Acta, Volume 607, pages 145-160 (1980), have shown that while control human fibroblast cells have copious collagen production, treatment with the compounds of the invention provides human fibroblast cells with suppressed collagen production and with an about 30% increase in elastin production over control cells.
(§2) Wrinkling of the skin involves the decreased formation of elastin and the increased formation of collagen by supporting cells, predominantly the fibroblasts.

human fibroblast cells [2] = assay: Collagen production by fibroblast cells; format: cell-based; details: treated vs control cells
From the text: as §1, §2

Fusarium = assay: Effects on Fusarium growth and fungal hormone production; format: cell-based
From the text: It is also known that these fungi elaborate zearalenone and zearalanol which are toxic substances to livestock ingesting the grain rotted by them. Ingestion of these toxic substances is known to influence the prepubertal development of pigs (Berger et al., Journal of Animal Science, Vol. 53, pages 1559-1564 (1981). Zearalenone and zearalanol also affect milk production, breeding and pregnancy in such large livestock animals as pigs, cows and horses (Young et al., Journal of Animal Science, Vol. 54, pages 976-982). The Fusarium family of fungi also adversely affect chicken, turkey and other poultry animal populations (Allen et al., Poultry Science, Vol. 60, pages 124-131 (1981); Mirocha et al., Poultry Science, Vol. 60, pages 19-25 (1981)). Because of the importance of livestock production, the effect of the anti-androgens of this invention on these fungi was extensively studied. There is no currently available satisfactory treatment for the fungi nor the fungal hormones they elaborate (i.e., zearalenone and zearalanol).

progesterone receptor = assay: Progesterone receptor inhibition, Fusarium calorum; format: binding
From the text: In the second series of experiments using the compound of the invention 2-(5-hydroxyhept-1-yl) bicyclo[3.3.0]octan-7-one {hexahydro-4-(5-hydroxyheptyl)-2-(1H)-pentalenone} upon zeralenone and zearalanol production, zearalenone and zearalanol were chemically obtained from Sigma Chemical Co., St. Louis, Mo.

estrogen receptor = assay: Estrogen receptor inhibition, Torulopsis; format: binding
androgen receptor [3] = assay: Androgen receptor inhibition, Blastomyces; format: binding
androgen receptor [4] = assay: Androgen receptor inhibition, Pseudomonas testosteroni; format: binding; details: DHT:anti-androgen 1:1,000
androgen receptor sites = biological target: T2, androgen receptor sites (Homo sapiens, UniProt P10275); assay: Anti-androgenic action in similar tests
T2 construct: other tests of the document use human skin, keloid and fibroblasts with 3H-DHT
From the text: The test procedures set forth in Examples 54-58 may be repeated with the compound 2-(5-methoxyhept-1-yl)bicyclo[3.3.0]octan-7-one {hexahydro-4-(5-methoxyheptyl)-2(1H)-pentalenone}.

androgen receptor [5] = biological target: T3, androgen receptor (Homo sapiens, UniProt P10275); assay: In vitro inhibition of the androgen receptor-DHT interaction; format: binding; parameters: from tissue; details: for % of Androgen Receptor Inhibition: DHT; for Femtamoles of DHT Bound/mg Protein: corrected for nonspecific binding, 0:1 = 78
T3 sequence (P10275 1-920): T1 sequence (P10275 1-920)

androgen receptor [6] = biological target: T3, androgen receptor; assay: In vitro inhibition of the androgen receptor-testosterone interaction; format: binding; parameters: from tissue; details: for inhibition of the androgen receptor site: 10 molecules of compound for one molecule of testosterone; for Femtamoles of Testosterone Bound/mg Protein / % of Androgen Receptor Inhibition: ratio of compound to androgen 20:1; for Femtamoles of Testosterone Bound/mg Protein: corrected for nonspecific binding, 0:1 = 3.6; for % of Androgen Receptor Inhibition: testosterone
Method: Competitive inhibition experiments were performed using compound IV in the second technique described above.

androgen receptor [7] = biological target: T3, androgen receptor; assay: Androgen receptor blocking in breast capsule (hard band) tissue; format: binding; parameters: from tissue; host or cells: breast capsule (hard fibrous band) tissue; concentration or dose not given beside the values
From the text: In addition to interabdominal adhesions following surgery, the other most common post-surgical fibrous complication is that of a hard fibrous band developing around breast implants following breast augmentation surgery. It has been postulated that these bands may be caused by keloid formation under the skin. Such tissues were studied to evaluate the effect of the anti-androgens of this invention on other keloid tissue.

[8] = ratio of compound to androgen 10:1
[9] = ratio of compound to androgen 100:1
[10] = ratio of compound to androgen 1000:1
[11] = ratio of compound to androgen 10000:1

SMILES	% Inhibition of 3H Androgen Binding to Skin (androgen receptor site; [8]) [%]	% Inhibition of 3H Androgen Binding to Skin (androgen receptor site; [9]) [%]	% Inhibition of 3H Androgen Binding to Skin (androgen receptor site; [10]) [%]	% Inhibition of 3H Androgen Binding to Skin (androgen receptor site; [11]) [%]	formation of elastin (human fibroblast cells [1])	increase in elastin production over control cells (human fibroblast cells [1]) [%]	collagen production/formation (human fibroblast cells [2])	inhibitory effects on species of Fusarium (Fusarium)	anti-androgenic action (androgen receptor sites)	% of Androgen Receptor Inhibition (androgen receptor [5]; [8]) [%]	% of Androgen Receptor Inhibition (androgen receptor [5]; [9]) [%]	Femtamoles of DHT Bound/mg Protein (androgen receptor [5]; [8]) [Femtamoles/mg Protein]	Femtamoles of DHT Bound/mg Protein (androgen receptor [5]; [9]) [Femtamoles/mg Protein]	inhibition of the androgen receptor site (androgen receptor [6])	Femtamoles of Testosterone Bound/mg Protein (androgen receptor [6]) [Femtamoles/mg Protein]	% of Androgen Receptor Inhibition (androgen receptor [6]) [%]	further results
CCC(O)CCCCC1CCC2CC(=O)CC12 (stereo not shown) [Compound IV]	25	51	75	83	massive observable increase in the formation of elastin	~30	decreased	valuable inhibitory effects	anti-androgenic compound operating in the same manner	25.6	41.0	58	46	inhibited the androgen receptor site	2.0	43.7	collagen production/formation (human fibroblast cells [2]; listed as compound IV): decrease in collagen production; colony counts (Fusarium; Fusarium): markedly decreased; growth rate (Fusarium; Fusarium): markedly decreased; production of zearalanol (Fusarium; Fusarium): markedly decreased; production of zearalenone (Fusarium; Fusarium): markedly decreased; % Progesterone Receptor Inhibition (progesterone receptor; DHT:anti-androgen 1:1): 7%; % Progesterone Receptor Inhibition (progesterone receptor; DHT:anti-androgen 1:10): 9%; % Estrogen Receptor Inhibition (estrogen receptor): 0%; % Androgen Receptor Inhibition (androgen receptor [3]): 49%; % Androgen Receptor Inhibition (androgen receptor [4]; strain 1): 90%; % Androgen Receptor Inhibition (androgen receptor [4]; strain 2): 49%; % Androgen Receptor Inhibition (androgen receptor [4]; strain 3): 39%; % Androgen Receptor Inhibition (androgen receptor [4]; strain 4): 63%
CCC(CCCCC1CCC2CC(=O)CC12)OC (stereo not shown) [Compound V, 2-(5-Methoxyhept-1-yl)bicyclo[3.3.0]octan-7-one]	32	55	80	86	massive observable increase in the formation of elastin	~30	decrease in collagen production; also recorded: decreased	valuable inhibitory effects	anti-androgenic compound operating in the same manner	43.6	51.3	44	38	inhibited the androgen receptor site	1.9	47.0	Mean % Androgen Inhibition (androgen receptor [7]; breast capsule group 1): 17%; Mean % Androgen Inhibition (androgen receptor [7]; breast capsule group 2): 49%; Mean % Androgen Inhibition (androgen receptor [7]; breast capsule group 3): 70%; Mean % Androgen Inhibition (androgen receptor [7]; breast capsule group 4): 74%
